Assay results taken from patent US9969755B2, “Photodynamic therapy photosensitizers” (The Royal Institution for the Advancement of …, priority 2016, dated 2018).
Values joined by “and” are separate entries in the source; they are usually repeats but may differ in a detail not shown here. Equal values may be shown once.

Legend:
Assay type in all cases: physicochemical
[1] = Phosphorescence studies at 77 K; parameters: unit not given beside the values; conditions: from phosphorescence emission spectra, 4:1 EtOH:MeOH
Experimental: Phosphorescence from compounds 3-6 was observed cooling a 4:1 EtOH:MeOH solution to 77 K with liquid nitrogen. Dilute sample solutions (Abs<0.1) were prepared in NMR tubes and suspended in a coldfinger Dewar (custom-made by Ace Glass) filled with liquid nitrogen.

[2] = Electrochemical studies (cyclic voltammetry); parameters: E^oB^+·/B (reversible oxidation potential): unit not given here; conditions: vs ferrocene, acetonitrile
Experimental: Electrochemical measurements were performed using a three-electrode system. The working electrode was a Pt wire, a Pt mesh wire was used as the counter electrode, and a Ag/AgCl electrode was used as the reference. A 0.1 M solution of tetrabutylammonium hexafluorophosphate in dry acetonitrile was used as the electrolyte solvent in which the compounds were dissolved to 1 mM or to saturation when the latter occurred before reaching a 1 mM concentration. Concentration was determined from their absorption and calculated extinction coefficient. Solutions also contained ferrocene with a concentration of 1 mM as an internal standard. The solutions were equilibrated with argon, and all measurements were conducted under inert atmosphere, with a minimum scan rate of 0.2 V s^−1. When the acquired cyclic voltammograms were not reversible the scan rate was increased up to 1 V s^−1. Formal redox potentials were calculated from the midpoint of the cathodic and anodic peak potentials observed in the cyclic voltammograms. All values were reported vs ferrocene, with the oxidation of ferrocene measured and corrected to zero for all experiments.

[3] = Absorption and steady-state fluorescence, fluorescence quantum yield in acetonitrile; conditions: for abs λmax / em λmax / Φf (fluorescence quantum yield) / ε (extinction coefficient): acetonitrile, room temperature; for drop in φf following inclusion of I or Br atoms: relative to unsubstituted analogue (1 for 3 and 4; 2 for 5 and 6)
Experimental: Absorption spectra were recorded using a Hitachi U-2800 UV-vis-NIR spectrophotometer. Luminescence spectra were recorded using a PTI QuantaMaster spectrofluorimeter using 10×10 mm quartz cuvettes and corrected for detector sensitivity.
The steady-state fluorescence spectra were recorded between 500-800 nm (depending on each compound) upon exciting at the wavelength of the absorbance maxima. The excitation and emission slits were tuned according to the fluorescence quantum yield of each BODIPY (i.e. for compound 7 excitation slits were 5 nm and for compound 4 we used 2 nm). Fluorescence was recorded every 1 nm using 0.1 s integration time. For the Fluorescence lifetime measurements, the excitation rate was 10 MHz, and the detection frequency was less than 100 kHz. Photons were collected at the magic angle. The fluorescence decay traces were fit using FluoFit (Picoquant) software. For steady-state and time-resolved fluorescence measurements a quartz cuvette with a 10 mm path length was used and all the solutions were prepared in air equilibrated acetonitrile.
Quantum yields of fluorescence were measured using PM605 in acetonitrile as a reference. Absorption and emission spectra of PM605 and the dye of interest were measured in acetonitrile at five different concentrations. The integrated intensity versus absorbance were then plotted and fitted linearly. Relative quantum yields of fluorescence for the unknown with respect to the standard were obtained from equation 1, where φ, Δ, and n refer, respectively, to the quantum yield, the slope obtained from the above-mentioned plot, and the solvent refractive index for the unknown (x) or standard (st).

[4] = ^1O2 quantum yield, photooxidation of DMA (indirect method); conditions: consumption of dimethylanthracene, Rose Bengal standard, air equilibrated acetonitrile
Experimental: Solutions of 9,10-dimethylanthracene (DMA, 50 μM) and photosensitizers (compound 3-10) in air equilibrated acetonitrile were irradiated in 10 mm path length quartz cell (3 ml) with a Nd:Yag laser exciting at 532 nm. Laser excitation was performed at 10 Hz, providing one laser output for every discharge of the flashlamp. An irradiation time of 1 s is equivalent to 10 laser pulses. The energy of each pulse was 10 mJ. The kinetics of DMA photooxidation were studied by following the decrease of the absorbance at λ=377 nm. The observed rate constant (kobs) was obtained by a linear least-squares fit of the semilogarithmic plot of ln [DMA]0/[DMA] (see FIG. 14). Quantum yields of ^1O2 production (φΔ^I) were calculated comparing the kobs=kq [^1O2] for the corresponding photosensitizer with that for Rose Bengal, which was used as a reference (φΔ=0.54).^1 Measurements of the sample and the reference under the same conditions afforded φΔ^I for compounds (3-10) by direct comparison of the slope in the linear region of the plots.
For the indirect detection of ^1O2, it is possible to determine the kq value considering that the production of ^1O2 is constant compare with the initial concentration of DMA. According to these, a pseudo first-order kinetic for this reaction is proposed (equations 2 to 5): […]
The conversion of DMA followed pseudo-first order kinetics with the different photosensitizers (see FIG. 14). From equation 5, it was possible to determine kobs and ^1O2.

[5] = Time-resolved fluorescence (fluorescence lifetime, TCSPC); conditions: for increase in kdec upon halogen substitution: 4 vs 1, 6 vs 2, 3 vs 1, 5 vs 2; for kdec (fluorescence decay rate constant) / knr (non-radiative decay rate constant, (1−φf)×kdec) / krad (radiative rate constant, φf×kdec): acetonitrile, room temperature
Experimental: Fluorescence lifetime measurements were carried out using a Picoquant Fluotime 200 time correlated single photon counting (TCSPC) setup employing an LDH-P-C-470 picosecond diode laser (Picoquant) with an excitation wavelength at 466 nm as the excitation source. The laser was controlled by a PDL 800 B picosecond laser driver from Picoquant. ^1HNMR spectra were recorded on a Bruker AV 400 instrument at 400 MHz. ^13CNMR spectra were recorder on a Varian VNMRS 500 instrument at 125 MHz. ESI mass spectra were measured on a Bruker maXis impact. Laser Flash Photolysis (LFP) experiments were carried out in a commercially available Luzchem 212 LFP setup provided with a Tektronix TDS 2000 digitizer for signal capture. A Nd:Yag laser (Continuum model Surelite I-10 using a second harmonic generators, model number SL-SHG-T1) was used for excitation at a wavelength of 532 nm. Phosphorescence experiments were recorded using a Cary Eclipse Fluorescence Spectrophotometer. Singlet Oxygen phosphorescence was recorded with a Hamamatsu NIR detector (peltier cooled at −62.8° C. operating at 800 V, coupled to a grating monochromator) upon excitation with a 532 nm Nd:YAG laser. A customized Luzchem Research LFP-111 system was employed to collect and process the data. The steady-state fluorescence spectra were recorded between 500-800 nm (depending on each compound) upon exciting at the wavelength of the absorbance maxima. The excitation and emission slits were tuned according to the fluorescence quantum yield of each BODIPY (i.e. for compound 7 excitation slits were 5 nm and for compound 4 we used 2 nm). Fluorescence was recorded every 1 nm using 0.1 s integration time. For the Fluorescence lifetime measurements, the excitation rate was 10 MHz, and the detection frequency was less than 100 kHz. Photons were collected at the magic angle. The fluorescence decay traces were fit using FluoFit (Picoquant) software. For steady-state and time-resolved fluorescence measurements a quartz cuvette with a 10 mm path length was used and all the solutions were prepared in air equilibrated acetonitrile.

Structure (SMILES)	E (Triplet), energy of the lowest triplet state [1]	E^oB^+·/B (reversible oxidation potential) [2]	E00 (HOMO-LUMO gap from intercept of normalized absorption and emission spectra) [3] [eV]	abs λmax [3] [nm]	em λmax [3] [nm]	Φf (fluorescence quantum yield) [3]	ε (extinction coefficient) [3] [M⁻¹ cm⁻¹]	drop in φf following inclusion of I or Br atoms [3]	ΦΔ^I (singlet oxygen quantum yield, indirect) [4]	increase in kdec upon halogen substitution [5]	kdec (fluorescence decay rate constant) [5]	knr (non-radiative decay rate constant, (1−φf)×kdec) [5]	krad (radiative rate constant, φf×kdec) [5]	E^opc (cathodic peak potential) [2]	drop in φf caused by the trap segment ([3]; 7 compared to reference 4, 8 compared to 5)	intramolecular electron transfer rate constant from the singlet state (keT) ([3]; based on φf≤0.008) [s⁻¹]
CC1=C(I)C(C)=[N+]2C1=C(C)c1c(C)c(I)c(C)n1[B-]2(F)F [Compound 3, 2,6-diiodo-1,3,5,7,8-pentamethyl-pyrromethene fluoroborate]	1.70	0.88	2.33	521	545	0.03 ± 0.01	83000	27 fold	0.75 ± 0.04	ca. 27 fold	476.2 ± 0.7 × 10^7 s^−1	463.0 ± 0.7 × 10^7 s^−1	13.1 ± 0.2 × 10^7 s^−1	–	–	–
CC1=C(Br)C(C)=[N+]2C1=C(C)c1c(C)c(Br)c(C)n1[B-]2(F)F [Compound 4, 2,6-dibromo-1,3,5,7,8-pentamethyl-pyrromethene fluoroborate]	1.71	0.89	2.37	515	535	0.20 and 0.20 ± 0.02	79000	~4 fold	0.64 ± 0.03	3.1 fold	55.3 ± 0.2 × 10^7 s^−1	44.2 ± 0.2 × 10^7 s^−1	11.0 ± 0.2 × 10^7 s^−1	–	–	–
CC(=O)OCC1=C2C(C)=C(I)C(C)=[N+]2[B-](F)(F)n2c(C)c(I)c(C)c21 [Compound 5, 8-Acetoxymethyl-2,6-diiodo-1,3,5,7-tetramethyl Pyrromethene Fluoroborate]	1.54	0.91	2.21	550	572	0.02 ± 0.01	96000	ca. 44 fold	0.95 ± 0.03	~42 fold	625.0 ± 0.7 × 10^7 s^−1	582.0 ± 0.7 × 10^7 s^−1	12.5 ± 0.2 × 10^7 s^−1	−1.14	–	–
CC(=O)OCC1=C2C(C)=C(Br)C(C)=[N+]2[B-](F)(F)n2c(C)c(Br)c(C)c21 [Compound 6, 8-Acetoxymethyl-2,6-dibromo-1,3,5,7-tetramethyl Pyrromethene Fluoroborate]	1.53	0.94	2.25	543	562	0.14 ± 0.02	81000	~6 fold	0.79 ± 0.02	4.5 fold	66.7 ± 0.3 × 10^7 s^−1	57.4 ± 0.2 × 10^7 s^−1	9.3 ± 0.1 × 10^7 s^−1	−1.13	–	–
CC1=C(Br)C(C)=[N+]2C1=C(CC1(C)CCc3c(C)c(O)c(C)c(C)c3O1)c1c(C)c(Br)c(C)n1[B-]2(F)F (centres unmarked) [Compound 7, 8-((6-Hydroxy-2,5,7,8-tetramethylchroman-2-yl)-methyl)-2,6-dibromo-1,3,5,7-tetramethyl]	–	–	–	532	557.4	–	56000	–	–	–	–	–	–	–	ca. 25 fold	≥ 1e+10
